Here are results for two compounds from US9557319B2, “Cell-based arrays, methods of making, and methods of using” (University of Florida Research Foundation, Inc., priority 2010, dated 2017).

Read-outs that look alike come from different tables or passages of the source. Marks after values point to notes of the source that are not given here.

Holding throughout (type): cell-based, human
One test has as its system CA1 CCSCs. Nature of the test: CA1 patient-derived CCSC proliferation on drug-eluting microarray. Particulars: for proliferation with increasing drug exposure: CA1 cells, single drug; for drug sensitivity (1/D50) / Emax: non-proliferation. As for the experimental part:
ALDH^high spheres were generated from tumor cells obtained from patients with colon cancer. Isolated cells were cultured in serum-free media as previously described^14 (reference 14 is hereby incorporated by reference herein with respect to methods for culturing cells in serum-free media). Using these cultures, adherent cell growth was established with 0.1% gelatin (Millipore) coatings on tissue culture plates (TPP, Switzerland) and the cells were serially propagated. For CA1 and CA2 cells, 25,000 cells were tested per array. Cells were seeded in PBS with 0.1% gelatin and treated identically to the microarrays with HCT116.
(§1) Camptothecin-loaded microarrays were stained with Annexin V (BD Pharminigen), fixed in 4% paraformaldehyde, and placed in PBS with Hoechst dye 34580 (Invitrogen, USA) for 30 min. Azide-loaded microarrays were fixed with 4% paraformaldehyde and incubated with PBS containing Hoechst 34580 dye. Finally, nutlin-3a-loaded microarrays were fixed with 4% paraformaldehyde, stained with BrdU (BD Bioscience, San Jose, Calif.), and incubated in PBS containing Hoechst 34580 dye. All arrays were mounted with Fluoro-Gel (Electron Microscope Sciences, Hatfield, Pa.) and imaged using an Axiovert 200M microscope (Carl Zeiss, Oberkochen, Germany). Analysis was performed with Axiovision (Carl Zeiss, Oberkochen, Germany) by quantifying, in each drug-eluting island, the area of fluorescence and reported as relative fluorescence intensity (RFI).
Proliferation values were normalized to control (0 μM drug). Values for concentration-response curves were transformed to non-proliferation by subtracting the normalized value from 100%. Curve fitting analysis was performed to obtain Emax and D50 values using the equation E=E0+(Emax×D)/(D+D50) where E is the effect (either non-proliferation or apoptosis), E0 is the initial value, Emax is the maximum effect, D is the dose, and D50 is the dose at which a 50% maximum effect (Emax) is observed^34. Drug sensitivity values were obtained by taking the inverse of the D50 and multiplying by 100. Those values marked with “#” indicate that the r^2 value of the curve-fit was below 0.65. N/A values are present where negative parameters were obtained.

In test [1] the test system is HCT116 cells. Nature of the test: Apoptosis of HCT116 cells incubated with soluble drugs in 96-well plates. Particulars: soluble drug, 24 h. The method, then:
(§2) FIGS. 12A-12D are a series of graphs illustrating apoptosis and proliferation dose-response curves from HCT116 cells incubated with soluble drugs. FIG. 12A illustrates the percent of apoptotic HCT116 cells incubated 24 h with soluble nutlin-3a. […] Significant differences were determined by ANOVA, {F(5,282)=19.694, p<0.05}, followed by Tukey's post-hoc analysis. FIG. 12C illustrates the percent of non-proliferating HCT116 cells incubated 24 h with soluble nutlin-3a. Significant differences were determined by ANOVA, {F(4,226)=12.643, p<0.05}, followed by Tukey's post-hoc analysis. […] Significant differences were determined by ANOVA, {F(5,252)=102.485, p<0.05}, followed by Tukey's post-hoc analysis. (*: p<0.05 compared to all other conditions, #:p<0.05 from all conditions marked *).
(§3) Results were corroborated using soluble drugs in 96-well plates (FIGS. 12A-D).

For test [2], the system named is HCT116 cells. As to the kind of experiment: Proliferation of HCT116 cells incubated with soluble drugs in 96-well plates. Particulars: soluble drug, 24 h. The method, then: as §2, §3
Test [3] has as its system HCT116 cells. As to the kind of experiment: HCT116 cell number (Hoechst nuclear stain) on drug-loaded microarray. Particulars: after 72 h.
Description: The following figures (FIGS. 5.1 to 5.4) are micrographs taken from drug-eluting cellular microarrays, manufactured as described herein. The images are taken from individual cellular islands from the same array under various drug-loading conditions over a period of three days. HCT116 cells are nuclear stained with Hoechst for easy visibility. […] The water phase for this experiment was loaded with azide at various concentrations in addition to a control with no drug loaded. Azide is a useful probe reagent, mutagen, and preservative. Azide inhibits cytochrome oxidase by binding irreversibly to the heme cofactor in a process similar to the action of carbon monoxide. As such, it is expected to induce necrosis in cells at physiologically relevant doses.
To establish microarray fidelity, microarrays were manufactured as described above. HCT116 cells were then seeded over microarrays and incubated for 24 or 72 h. Microarrays were fixed in 4% paraformaldehyde and stained with Hoechst 34580 dye.
as §1

The mark [4] stands for this setting: Nutlin dose response, 2nd drug CPT 50 μM, CA1.

With `CC[C@@]1(O)C(=O)OCc2c1cc1n(c2=O)Cc2cc3ccccc3nc2-1` [Camptothecin], in the test on CA1 CCSCs, the “proliferation with increasing drug exposure” value is “decreasing proliferation”. The “drug sensitivity (1/D50)” value is on record as 10.8 +/− 16 with CA1 CCSCs (Camptothecin dose response, 2nd drug NUT 0 μM, CA1); 1.97 +/− 7.7 with CA1 CCSCs (Camptothecin dose response, 2nd drug NUT 1 μM, CA1); 3.18 +/− 0.40 in the test with CA1 CCSCs (Camptothecin dose response, 2nd drug NUT 25 μM, CA1); 0.62 +/− 1.8 with CA1 CCSCs (Camptothecin dose response, 2nd drug NUT 125 μM, CA1). The Emax is 61.9% in the test with CA1 CCSCs (Homo sapiens, Camptothecin dose response, 2nd drug NUT 0 μM, CA1, read-out: Emax); 105% in the test with CA1 CCSCs (Homo sapiens, Camptothecin dose response, 2nd drug NUT 1 μM, CA1, read-out: Emax); 109% with CA1 CCSCs (Homo sapiens, Camptothecin dose response, 2nd drug NUT 25 μM, CA1, read-out: Emax); 221% with CA1 CCSCs (Homo sapiens, Camptothecin dose response, 2nd drug NUT 125 μM, CA1, read-out: Emax). Besides, the “effect on inducing apoptosis of HCT116 cells” value in the test on HCT116 cells [1] is listed as “dose-dependent effect”. The “effect on reducing proliferation of HCT116 cells” value in the test with HCT116 cells [2] was “dose-dependent effect”.

On to `COc1ccc(C2=N[C@@H](c3ccc(Cl)cc3)[C@@H](c3ccc(Cl)cc3)N2C(=O)N2CCNC(=O)C2)c(OC(C)C)c1` [Nutlin-3a], for which the “increase in sensitivity to nutlin-3a” value in the test with CA1 CCSCs (10 μM camptothecin present vs nutlin-3a alone, CA1) was 75%. In the test on CA1 CCSCs (50 μM camptothecin present vs nutlin-3a alone, CA1), the “increase in Emax of the nutlin-3a concentration response curve” value came out at 115%. For the same compound, the “proliferation with increasing drug exposure” value in the test with CA1 CCSCs is given as “decreasing proliferation”. The Emax in the test on CA1 CCSCs (Nutlin dose response, 2nd drug CPT 0 μM, CA1) is given as 38.0; in the test on CA1 CCSCs (Nutlin dose response, 2nd drug CPT 1 μM, CA1) it was 34.7 +/− 5.9; in the test on CA1 CCSCs (Nutlin dose response, 2nd drug CPT 10 μM, CA1) it was 50.9 +/− 0.15; in the test with CA1 CCSCs (setting [4]), 81.7. Moreover, the “drug sensitivity (1/D50)” value with CA1 CCSCs (Nutlin dose response, 2nd drug CPT 0 μM, CA1, listed as Nutlin) was 28.6 +/− 4.7*; in the test with CA1 CCSCs (Nutlin dose response, 2nd drug CPT 0 μM, CA1, listed as nutlin-3a), 28.6; in the test on CA1 CCSCs (Nutlin dose response, 2nd drug CPT 10 μM, CA1, listed as Nutlin) it was 50.0 +/− 1.3*; in the test with CA1 CCSCs (Nutlin dose response, 2nd drug CPT 10 μM, CA1, listed as nutlin-3a), 50.0; with CA1 CCSCs (setting [4]) it was 55.6 +/− 180. In addition, the “HCT116 cell numbers vs drug loading concentration” value in the test on HCT116 cells [3] is “decreased with increasing loading concentrations”. In the test with HCT116 cells [1], the “effect on inducing apoptosis of HCT116 cells” value is reported as “no effect”. In addition, the “effect on reducing proliferation of HCT116 cells” value with HCT116 cells [2] is given as “dose-dependent effect”.
